Test results as given in patent US11185074B2, “Microbiocidal quinoline (thio)carboxamide derivatives” (SYNGENTA PARTICIPATIONS AG, priority 2017, dated 2021).

Columns and labels:
[1] = tested on: Botryotinia fuckeliana (Botrytis cinerea); assay: Botryotinia fuckeliana (Botrytis cinerea) / liquid culture (gray mould); assay type: cell-based; settings: 72 h, 20 ppm, liquid culture, inhibition of growth photometrically 3-4 days after application, compared to untreated control, read-out: control of Botryotinia fuckeliana
[2] = tested on: Glomerella lagenarium (Colletotrichum lagenarium); assay: Glomerella lagenarium (Colletotrichum lagenarium) / liquid culture (anthracnose); assay type: cell-based; settings: Colletotrichum orbiculare; 20 ppm; liquid culture, inhibition of growth photometrically 3-4 days after application; compared to untreated control; read-out: control of Glomerella lagenarium
[3] = tested on: Fusarium culmorum; assay: microbe, parasite or virus in culture; assay type: cell-based; settings: read-out: control of Fusarium culmorum
[4] = tested on: Fusarium culmorum; assay: whole plant or invertebrate; assay type: in vivo, Fusarium culmorum on wheat spikelets cv. Monsun; settings: in Triticum aestivum, read-out: control of Fusarium culmorum
[5] = tested on: Gibberella zeae (Fusarium graminearum); assay: whole plant or invertebrate; assay type: in vivo; settings: in Triticum aestivum, 144 h, read-out: control of Gibberella zeae
[6] = tested on: Monographella nivalis (Microdochium nivale); assay: Monographella nivalis (Microdochium nivale) / liquid culture (foot rot cereals); assay type: cell-based; settings: 96 h, inhibition of growth photometrically 4-5 days after application, compared to untreated control
[7] = tested on: Magnaporthe grisea (Pyricularia oryzae); assay: microbe, parasite or virus in culture; assay type: cell-based; settings: 72 h, read-out: control of Magnaporthe grisea
[8] = tested on: Magnaporthe grisea (Pyricularia oryzae); assay: whole plant or invertebrate; assay type: in vivo; settings: foliar, read-out: control of Magnaporthe grisea
[9] = tested on: Sclerotinia sclerotiorum; assay: Sclerotinia sclerotiorum / liquid culture (cottony rot); settings: 72 h, read-out: control of Sclerotinia sclerotiorum
Procedure: Sclerotinia sclerotiorum/Liquid Culture (Cottony Rot)
Mycelia fragments of a newly grown liquid culture of the fungus are directly mixed into nutrient broth (Vogels broth). After placing a (DMSO) solution of test compound into a microtiter plate (96-well format) the nutrient broth containing the fungal material is added. The test plates are incubated at 24° C. and the inhibition of growth is determined photometrically 3-4 days after application.

| SMILES | inhibition of growth at 20 ppm [1] [%] | inhibition of growth at 20 ppm [2] [%] | inhibition of growth at 20 ppm [3] [%] | pest or weed control at 200 ppm [4] [%] | pest or weed control at 200 ppm [5] [%] | inhibition of growth at 20 ppm [6] [%] | inhibition of growth at 20 ppm [7] [%] | melting point [°C] | pest or weed control at 200 ppm [8] [%] | inhibition of growth at 20 ppm [9] [%] |
| --- | --- | --- | --- | --- | --- | --- | --- | --- | --- | --- |
| C=C(C)CC(C)(CC(=C)C)NC(=O)c1cnc2c(F)cccc2c1 [E-2, N-[1,3-dimethyl-1-(2-methylallyl)but-3-enyl]-8-fluoro-quinoline-3-carboxamide] | ≥ 80 | ≥ 80 | ≥ 80 | ≥ 80 | ≥ 80 | ≥ 80 | ≥ 80 | 116 to 118 |  |  |
| CC(C)=C(F)CC(C)(CC(C)C)NC(=O)c1cnc2c(F)cccc2c1 (stereo not drawn) [E-6] | ≥ 80 | ≥ 80 | ≥ 80 | ≥ 80 | ≥ 80 | ≥ 80 | ≥ 80 | 119 to 121 |  |  |
| CC(C)CC(CC(C)C)NC(=O)c1cnc2c(F)cccc2c1 [E-9] | ≥ 80 | ≥ 80 | ≥ 80 | ≥ 80 | ≥ 80 | ≥ 80 | ≥ 80 | 170 to 172 |  |  |
| CC(C)(C)C(CCc1ccccc1)NC(=O)c1cnc2c(F)cccc2c1 (stereo not drawn) [E-14] | ≥ 80 | ≥ 80 | ≥ 80 | ≥ 80 | ≥ 80 | ≥ 80 | ≥ 80 | 55 to 65 |  |  |
| CC(C)=C(F)CC(CC(C)C)NC(=O)c1cnc2c(F)cccc2c1 (stereo not drawn) [E-18] | ≥ 80 | ≥ 80 | ≥ 80 | ≥ 80 | ≥ 80 | ≥ 80 | ≥ 80 | 75 to 76 |  |  |
| CC(C)(CCc1cccc(C(F)(F)F)c1)NC(=O)c1cnc2c(F)cccc2c1 [E-27] | ≥ 80 | ≥ 80 | ≥ 80 |  |  | ≥ 80 |  |  | ≥ 80 |  |
| CCCC(C)CC(C)NC(=O)c1cnc2c(C)cccc2c1 (stereo not drawn) [E-42] | ≥ 80 | ≥ 80 | ≥ 80 |  |  | ≥ 80 |  |  | ≥ 80 |  |
| CCCC(C)CC(C)(CC(F)(F)F)NC(=O)c1cnc2c(C)cccc2c1 (stereo not drawn) [E-47] | ≥ 80 | ≥ 80 | ≥ 80 | ≥ 80 |  | ≥ 80 | ≥ 80 |  | ≥ 80 |  |
| C=C(C)CC(C)(CC(=C)C)NC(=O)c1cnc2c(F)c(F)ccc2c1 [E-56] | ≥ 80 | ≥ 80 | ≥ 80 |  |  | ≥ 80 | ≥ 80 | 117 to 120 | ≥ 80 | ≥ 80 |
| CC(CC1CCCC1)(CC(F)(F)F)NC(=O)c1cnc2c(F)c(F)ccc2c1 (stereo not drawn) [E-57] | ≥ 80 | ≥ 80 | ≥ 80 |  |  | ≥ 80 | ≥ 80 | 115 to 116 | ≥ 80 | ≥ 80 |
| CC(CC1CCCCC1)(CC(F)(F)F)NC(=O)c1cnc2c(F)c(F)ccc2c1 (stereo not drawn) [E-58] | ≥ 80 | ≥ 80 | ≥ 80 |  |  | ≥ 80 | ≥ 80 | 99 to 102 | ≥ 80 | ≥ 80 |
